Assay results from patent publication US10202387B2, “Heterocyclyl linked imidazopyridazine derivatives as PI3KB inhibitors” (Janssen Pharmaceutica NV, priority 2014, dated 2019).

What was measured:
[1] = tested on: Akt phosphorylated at Ser473 in PC-3 cells; assay: Cellular assay: phosphorylation of Akt (Ser473) in PC-3 cells, MSD ELISA; assay type: cell-based; conditions: Homo sapiens, 1 h, 60 min incubation with compound, read-out: IC50 pAkt_S473
Description: (§1) Cellular activity of PI3Kβ inhibitors was determined by quantifying the phosphorylation of Akt in PC-3 cells. Akt phosphorylated at Ser473 and Thr308 were measured using an enzyme-linked immunosorbent assay (ELISA; Meso Scale Discovery (MSD). Gaithersburg, Md.) and specific primary antibodies from MSD.
(§2) On day 1, PC3 cells (ATCC […]) were seeded into PerkinElmer MW96 plates at 25.000 cells per well, in 75 μl complete culture medium (DMEM (Dulbecco's Modified Eagle's Medium) high glucose. AQmedia™, D0819, Sigma-Aldrich) containing 10% heat inactivated FCS (Fetal Bovine Serum) and incubated at 37° C., 5% CO2 during 24 hours. On day 2, compound or DMSO (dimethyl sulfoxide) (0.3%) was added and cells were further incubated for 60 min at 37° C., 5% CO2 in a total volume of 100 μl of medium.
(§3) The phosphoprotein assay was executed according to vendor instructions in the Phospho-Akt (Ser473) Assay Whole Cell Lysate Kit (MSD #K15100D-3) and the Phospho-Akt (Thr308) Assay Whole Cell Lysate Kit (MSD #K151DYD-3) using the lysis, blocking and wash buffer provided.
(§4) Briefly, at the end of the cell treatment period, media were removed by aspiration and adherent cells were lysed in 50 μl ice-cold lysis buffer. MSD plates are supplied pre-coated with capture antibodies for Phospho-Akt (Ser473 and Thr308). After blocking, lysates from tissue culture plates were added and plates were washed. Then, a solution containing the detection antibody (anti-total Akt conjugated with an electrochemiluminescent compound-MSD Sulfo-tag label) was added. The signals were detected using an MSD SECTOR Imager 6000 and are proportional to the phospho-Akt titres.
(§5) Data were processed. The percentage of inhibition was plotted against the log concentration of test compounds, and the sigmoidal log concentration-effect curve of best fit was calculated by nonlinear regression analysis. From these concentration-response curves, the IC50 values were calculated. Five concentrations were used for curve fitting.

[2] = tested on: Akt phosphorylated at Thr308 in PC-3 cells; assay: Cellular assay: phosphorylation of Akt (Thr308) in PC-3 cells, MSD ELISA; assay type: cell-based; conditions: Homo sapiens, 1 h, 60 min incubation with compound, read-out: IC50 pAkt_Thr308
Description: as §1, §2, §3, §4, §5

PIK3Cα_h = biological target: T1, PIK3Cα_h (Homo sapiens, UniProt P42336); assay: Enzyme binding assay (KINOMEscan); conditions: DiscoveRx
T1 construct: purchased DiscoveRx Corporation, San Diego (KINOMEscan service)
T1 sequence (P42336 whole entry): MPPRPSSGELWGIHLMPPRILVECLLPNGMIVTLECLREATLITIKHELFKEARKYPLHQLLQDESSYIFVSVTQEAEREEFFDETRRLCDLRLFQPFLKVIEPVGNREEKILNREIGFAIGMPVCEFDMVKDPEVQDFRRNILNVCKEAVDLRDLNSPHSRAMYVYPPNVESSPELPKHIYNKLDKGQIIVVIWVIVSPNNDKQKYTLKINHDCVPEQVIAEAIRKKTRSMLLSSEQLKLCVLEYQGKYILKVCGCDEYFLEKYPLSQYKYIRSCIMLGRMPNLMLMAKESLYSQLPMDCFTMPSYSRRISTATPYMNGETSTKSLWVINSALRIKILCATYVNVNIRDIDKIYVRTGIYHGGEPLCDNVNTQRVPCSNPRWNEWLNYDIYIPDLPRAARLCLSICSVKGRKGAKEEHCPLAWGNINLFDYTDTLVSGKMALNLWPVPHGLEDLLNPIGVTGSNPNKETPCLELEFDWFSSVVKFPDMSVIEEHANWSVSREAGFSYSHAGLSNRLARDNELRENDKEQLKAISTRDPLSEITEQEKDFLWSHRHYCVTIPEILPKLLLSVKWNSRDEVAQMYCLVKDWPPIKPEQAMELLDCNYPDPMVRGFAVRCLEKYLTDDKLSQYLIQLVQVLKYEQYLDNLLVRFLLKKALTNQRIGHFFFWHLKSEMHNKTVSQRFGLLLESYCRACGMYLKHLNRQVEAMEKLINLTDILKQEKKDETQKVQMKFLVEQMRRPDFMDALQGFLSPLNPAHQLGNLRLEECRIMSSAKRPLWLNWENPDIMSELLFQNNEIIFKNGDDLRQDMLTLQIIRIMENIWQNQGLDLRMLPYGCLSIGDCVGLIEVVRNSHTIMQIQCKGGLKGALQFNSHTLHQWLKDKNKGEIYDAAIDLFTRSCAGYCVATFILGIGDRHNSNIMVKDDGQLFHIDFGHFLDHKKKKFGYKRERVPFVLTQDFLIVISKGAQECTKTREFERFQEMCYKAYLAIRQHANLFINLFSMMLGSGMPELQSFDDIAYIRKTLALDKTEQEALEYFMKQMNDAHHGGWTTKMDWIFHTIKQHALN
Description: (§6) Enzyme Binding Assays (KINOMEscan®)
(§7) Kinase enzyme binding affinities of compounds disclosed herein were determined using the KINOMEscan technology performed by DiscoveRx Corporation, San Diego, Calif., USA (www.kinomescan.com). Table A reports the obtained Kd values (nM), with the Kd being the inhibitor binding constant: […]

PIK3Cβ_h = biological target: T2, PIK3Cβ_h (Homo sapiens, UniProt P42338); assay: Enzyme binding assay (KINOMEscan); conditions: DiscoveRx
T2 construct: purchased DiscoveRx Corporation, San Diego (KINOMEscan service)
T2 sequence (P42338 whole entry): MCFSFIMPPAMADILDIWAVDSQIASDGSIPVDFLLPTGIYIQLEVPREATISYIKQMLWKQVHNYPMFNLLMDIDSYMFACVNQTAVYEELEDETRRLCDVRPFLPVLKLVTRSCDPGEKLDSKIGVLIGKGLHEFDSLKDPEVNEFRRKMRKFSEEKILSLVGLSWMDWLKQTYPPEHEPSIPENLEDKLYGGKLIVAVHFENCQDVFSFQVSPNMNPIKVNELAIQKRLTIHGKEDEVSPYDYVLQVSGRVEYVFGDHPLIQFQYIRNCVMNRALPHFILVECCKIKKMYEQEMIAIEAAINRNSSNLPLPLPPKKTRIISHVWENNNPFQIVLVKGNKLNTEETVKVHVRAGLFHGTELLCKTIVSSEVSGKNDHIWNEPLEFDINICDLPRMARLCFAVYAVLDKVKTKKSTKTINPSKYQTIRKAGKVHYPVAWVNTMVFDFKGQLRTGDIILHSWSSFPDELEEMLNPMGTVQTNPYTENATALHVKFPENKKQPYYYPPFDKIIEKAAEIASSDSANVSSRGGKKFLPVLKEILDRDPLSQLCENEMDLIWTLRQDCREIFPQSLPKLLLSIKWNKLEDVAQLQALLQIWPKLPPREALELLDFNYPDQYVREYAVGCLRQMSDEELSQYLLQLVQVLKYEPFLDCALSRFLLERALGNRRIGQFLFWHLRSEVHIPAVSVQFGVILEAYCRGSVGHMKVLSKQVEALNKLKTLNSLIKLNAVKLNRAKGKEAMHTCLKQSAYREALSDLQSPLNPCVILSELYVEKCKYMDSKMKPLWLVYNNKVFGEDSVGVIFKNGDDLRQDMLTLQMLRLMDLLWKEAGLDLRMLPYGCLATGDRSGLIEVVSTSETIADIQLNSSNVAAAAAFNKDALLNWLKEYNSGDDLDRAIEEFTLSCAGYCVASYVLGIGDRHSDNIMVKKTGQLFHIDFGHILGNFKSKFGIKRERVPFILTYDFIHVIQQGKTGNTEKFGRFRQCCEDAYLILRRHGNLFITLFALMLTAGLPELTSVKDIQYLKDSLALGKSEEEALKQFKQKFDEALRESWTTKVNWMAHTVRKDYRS
Description: as §6, §7

PIK3Cδ_h = biological target: T3, PIK3Cδ_h (Homo sapiens, UniProt O00329); assay: Enzyme binding assay (KINOMEscan); conditions: DiscoveRx
T3 construct: purchased DiscoveRx Corporation, San Diego (KINOMEscan service)
T3 sequence (O00329 1-1044): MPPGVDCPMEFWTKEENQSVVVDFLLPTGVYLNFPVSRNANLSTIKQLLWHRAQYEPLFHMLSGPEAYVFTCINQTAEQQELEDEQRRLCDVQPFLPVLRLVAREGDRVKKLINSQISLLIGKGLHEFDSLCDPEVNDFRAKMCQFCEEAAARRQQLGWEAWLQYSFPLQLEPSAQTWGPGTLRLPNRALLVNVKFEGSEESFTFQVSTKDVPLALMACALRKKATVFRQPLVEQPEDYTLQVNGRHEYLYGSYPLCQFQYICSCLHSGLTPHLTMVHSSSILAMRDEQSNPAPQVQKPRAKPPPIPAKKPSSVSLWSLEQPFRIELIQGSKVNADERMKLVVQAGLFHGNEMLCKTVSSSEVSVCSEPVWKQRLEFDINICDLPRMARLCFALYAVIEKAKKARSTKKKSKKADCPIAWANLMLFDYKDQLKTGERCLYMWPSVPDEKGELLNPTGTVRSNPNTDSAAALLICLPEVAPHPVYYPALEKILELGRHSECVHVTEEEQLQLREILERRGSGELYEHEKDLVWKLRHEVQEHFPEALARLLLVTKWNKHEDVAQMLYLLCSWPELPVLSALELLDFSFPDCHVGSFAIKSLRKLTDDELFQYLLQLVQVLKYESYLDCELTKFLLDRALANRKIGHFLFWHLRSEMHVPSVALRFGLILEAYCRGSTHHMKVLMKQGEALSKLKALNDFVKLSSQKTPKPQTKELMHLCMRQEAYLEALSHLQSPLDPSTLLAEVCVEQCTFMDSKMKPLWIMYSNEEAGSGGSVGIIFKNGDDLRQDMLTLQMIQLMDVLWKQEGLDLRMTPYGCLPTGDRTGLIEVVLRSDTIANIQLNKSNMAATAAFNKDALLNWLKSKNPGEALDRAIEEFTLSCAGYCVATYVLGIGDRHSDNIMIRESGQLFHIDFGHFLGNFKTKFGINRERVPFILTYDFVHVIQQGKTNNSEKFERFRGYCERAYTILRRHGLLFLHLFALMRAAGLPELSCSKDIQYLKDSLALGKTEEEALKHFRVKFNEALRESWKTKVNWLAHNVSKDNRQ
Description: as §6, §7

PIK3Cγ_h = biological target: T4, PIK3Cγ_h (Homo sapiens, UniProt P48736); assay: Enzyme binding assay (KINOMEscan); conditions: DiscoveRx
T4 construct: purchased DiscoveRx Corporation, San Diego (KINOMEscan service)
T4 sequence (P48736 whole entry): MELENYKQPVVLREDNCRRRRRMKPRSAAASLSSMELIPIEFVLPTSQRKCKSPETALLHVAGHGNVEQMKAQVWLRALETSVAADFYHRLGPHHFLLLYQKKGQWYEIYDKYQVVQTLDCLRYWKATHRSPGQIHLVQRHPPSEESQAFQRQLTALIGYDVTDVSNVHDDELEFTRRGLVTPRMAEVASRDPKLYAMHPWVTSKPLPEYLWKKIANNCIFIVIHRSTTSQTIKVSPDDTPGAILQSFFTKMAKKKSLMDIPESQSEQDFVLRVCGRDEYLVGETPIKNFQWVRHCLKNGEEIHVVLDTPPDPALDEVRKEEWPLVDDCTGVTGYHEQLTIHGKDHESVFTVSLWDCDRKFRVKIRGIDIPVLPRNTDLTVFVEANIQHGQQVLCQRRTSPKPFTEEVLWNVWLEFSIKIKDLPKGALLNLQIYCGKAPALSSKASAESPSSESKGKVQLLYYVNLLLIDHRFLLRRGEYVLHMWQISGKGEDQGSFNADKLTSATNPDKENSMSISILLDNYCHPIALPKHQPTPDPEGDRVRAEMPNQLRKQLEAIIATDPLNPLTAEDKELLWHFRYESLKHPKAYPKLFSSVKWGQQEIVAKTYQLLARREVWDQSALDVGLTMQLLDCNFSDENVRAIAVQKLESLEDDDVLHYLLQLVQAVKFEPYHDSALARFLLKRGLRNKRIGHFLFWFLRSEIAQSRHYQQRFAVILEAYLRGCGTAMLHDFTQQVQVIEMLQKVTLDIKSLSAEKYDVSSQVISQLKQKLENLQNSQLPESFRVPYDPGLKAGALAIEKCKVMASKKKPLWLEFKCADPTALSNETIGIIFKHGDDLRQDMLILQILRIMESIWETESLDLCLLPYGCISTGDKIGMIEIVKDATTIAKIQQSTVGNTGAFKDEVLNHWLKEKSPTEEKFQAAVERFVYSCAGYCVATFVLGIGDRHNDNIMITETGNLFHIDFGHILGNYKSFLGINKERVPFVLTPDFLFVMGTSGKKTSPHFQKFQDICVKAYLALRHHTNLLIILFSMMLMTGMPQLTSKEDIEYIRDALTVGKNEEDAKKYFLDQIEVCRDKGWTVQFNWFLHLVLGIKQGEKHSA
Description: as §6, §7

MTOR_h = biological target: T5, MTOR_h (Homo sapiens, UniProt P42345); assay: Enzyme binding assay (KINOMEscan); conditions: DiscoveRx
T5 construct: purchased DiscoveRx Corporation, San Diego (KINOMEscan service)
Description: as §6, §7

## Cc1c(Cc2c(CN3CC4(C3)CS(=O)(=O)C4)nc3c(-c4ncc[nH]4)cc(N4CCOCC4)nn23)cccc1C(F)(F)F [Compound 20]
[1]
  IC50: ~34 nM
[2]
  IC50: ~20 nM
other
  melting point: 150 °C
PIK3Cα_h
  Kd: 275 nM
PIK3Cβ_h
  Kd: 1.3 nM
PIK3Cδ_h
  Kd: 32 nM
PIK3Cγ_h
  Kd: 1550 nM
MTOR_h
  Kd: 9330 nM

## Cc1c(Cc2c(CC(=O)N3CC(C)NC(C)C3)nc3c(N)cc(N4CCOCC4)nn23)cccc1C(F)(F)F (stereo not shown) [Compound 22]
[1]
  IC50: 45 nM
[2]
  IC50: ~26 nM
other
  melting point: 110 °C
PIK3Cα_h
  Kd: 2240 nM
PIK3Cβ_h
  Kd: 0.5 nM
PIK3Cδ_h
  Kd: 56 nM
PIK3Cγ_h
  Kd: 8910 nM
MTOR_h
  Kd: 10700 nM

## Cc1c(Cc2c(CC(=O)N3CCS(=O)(=O)CC3)nc3c(N)cc(N4CCOCC4)nn23)cccc1C(F)(F)F [Compound 23]
[1]
  IC50: ~79 nM
[2]
  IC50: ~68 nM
other
  melting point: 226 °C
PIK3Cα_h
  Kd: 2240 nM
PIK3Cβ_h
  Kd: 1.5 nM
PIK3Cδ_h
  Kd: 240 nM
PIK3Cγ_h
  Kd: > 30200 nM
MTOR_h
  Kd: > 30200 nM

## Cc1c(Cc2c(CC(=O)N3CC(CO)C3)nc3c(N)cc(N4CCOCC4)nn23)cccc1C(F)(F)F [Compound 24]
[1]
  IC50: 49 nM
[2]
  IC50: 15 nM
other
  melting point: 130 °C
PIK3Cα_h
  Kd: 3160 nM
PIK3Cβ_h
  Kd: 0.5 nM
PIK3Cδ_h
  Kd: 52 nM
PIK3Cγ_h
  Kd: 17000 nM
MTOR_h
  Kd: 3980 nM

## Cc1c(Cc2c(CN3CC(C)NC(C)C3)nc3c(-c4ccn[nH]4)cc(N4CCOCC4)nn23)cccc1C(F)(F)F (stereo not shown) [Compound 25]
[1]
  IC50: 214 nM
[2]
  IC50: 234 nM
other
  melting point: 159 °C
PIK3Cα_h
  Kd: 1150 nM
PIK3Cβ_h
  Kd: 2 nM
PIK3Cδ_h
  Kd: 98 nM
PIK3Cγ_h
  Kd: 5250 nM
MTOR_h
  Kd: 407 nM

## Cc1c(Cc2c(CN3CC4(C3)CS(=O)(=O)C4)nc3c(C(N)=O)cc(N4CCOCC4)nn23)cccc1C(F)(F)F [Compound 26]
[1]
  IC50: 275 nM
[2]
  IC50: ~62 nM
other
  melting point: 216 °C
PIK3Cα_h
  Kd: 692 nM
PIK3Cβ_h
  Kd: 3 nM
PIK3Cδ_h
  Kd: 372 nM
PIK3Cγ_h
  Kd: 10700 nM
MTOR_h
  Kd: > 30200 nM

## Cc1c(Cc2c(CN3CCC4(CCS4(=O)=O)C3)nc3c(N)cc(N4CCOCC4)nn23)cccc1C(F)(F)F (stereo not shown) [Compound 32]
[1]
  IC50: 91 nM
[2]
  IC50: 74 nM
other
  melting point: 214 °C
PIK3Cα_h
  Kd: 15100 nM
PIK3Cβ_h
  Kd: 2.5 nM
PIK3Cδ_h
  Kd: 251 nM
PIK3Cγ_h
  Kd: > 30200 nM
MTOR_h
  Kd: > 30200 nM

## Cc1c(Cc2c(CN3CCC4(CCCCS4(=O)=O)C3)nc3c(N)cc(N4CCOCC4)nn23)cccc1C(F)(F)F (stereo not shown) [Compound 33]
[1]
  IC50: 120 nM
[2]
  IC50: 100 nM
other
  melting point: 228 °C
PIK3Cα_h
  Kd: 13500 nM
PIK3Cβ_h
  Kd: 3 nM
PIK3Cδ_h
  Kd: 398 nM
PIK3Cγ_h
  Kd: > 30200 nM
MTOR_h
  Kd: > 30200 nM

## Cc1c(Cc2c(CNC(=O)[C@@H]3C[C@@H](O)CN3)nc3c(N)cc(N4CCOCC4)nn23)cccc1C(F)(F)F [Compound 36]
[1]
  IC50: ~73 nM
[2]
  IC50: ~50 nM
other
  melting point: 140 °C
PIK3Cα_h
  Kd: 1390 nM
PIK3Cβ_h
  Kd: 0.1 nM
PIK3Cδ_h
  Kd: 5 nM
PIK3Cγ_h
  Kd: 3000 nM
MTOR_h
  Kd: 3140 nM

## Cc1c(Cc2c(COC(=O)CN3CCN(C)CC3)nc3c(N)cc(N4CCOCC4)nn23)cccc1C(F)(F)F [Compound 40b]
[1]
  IC50: 214 nM
[2]
  IC50: 105 nM
other
  melting point: 99 °C
PIK3Cα_h
  Kd: 25100 nM
PIK3Cβ_h
  Kd: 2.8 nM
PIK3Cδ_h
  Kd: 479 nM
PIK3Cγ_h
  Kd: > 30200 nM
MTOR_h
  Kd: 21900 nM

## Cc1c(F)cccc1Cc1c(CN2CC(O)C2)nc2c(N)cc(N3CCOCC3)nn12 [Compound 42]
[1]
  IC50: 117 nM
[2]
  IC50: 55 nM
other
  melting point: 214 °C
PIK3Cα_h
  Kd: 4470 nM
PIK3Cβ_h
  Kd: 1.1 nM
PIK3Cδ_h
  Kd: 123 nM
PIK3Cγ_h
  Kd: 2690 nM
MTOR_h
  Kd: 1230 nM

## Cc1c(F)cccc1Cc1c(CN2CCS(=O)(=O)CC2)nc2c(N)cc(N3CCOCC3)nn12 [Compound 43]
[1]
  IC50: 10 nM
[2]
  IC50: 17 nM
other
  melting point: 130 °C
PIK3Cα_h
  Kd: 2040 nM
PIK3Cβ_h
  Kd: 0.4 nM
PIK3Cδ_h
  Kd: 62 nM
PIK3Cγ_h
  Kd: > 30200 nM
MTOR_h
  Kd: 1380 nM

## CCc1c(F)cccc1Cc1c(CN2CC(O)C2)nc2c(N)cc(N3CCOCC3)nn12 [Compound 44]
[1]
  IC50: 316 nM
[2]
  IC50: 145 nM
other
  melting point: 172 °C
PIK3Cα_h
  Kd: 1700 nM
PIK3Cβ_h
  Kd: 5.4 nM
PIK3Cδ_h
  Kd: 275 nM
PIK3Cγ_h
  Kd: 537 nM
MTOR_h
  Kd: 1050 nM

## CCc1c(F)cccc1Cc1c(CN2CCS(=O)(=O)CC2)nc2c(N)cc(N3CCOCC3)nn12 [Compound 45]
[1]
  IC50: > 513 nM
[2]
  IC50: > 513 nM
other
  melting point: 240 °C
PIK3Cα_h
  Kd: 2400 nM
PIK3Cβ_h
  Kd: 1.1 nM
PIK3Cδ_h
  Kd: 178 nM
PIK3Cγ_h
  Kd: > 30200 nM
MTOR_h
  Kd: 2000 nM
